Consider two compounds from ChEMBL document CHEMBL4616726, “Optimization of the Linker Domain in a Dimeric Compound that Degrades an r(CUG) Repeat Expansion in Cells” (J Med Chem, 2020).

Data set [1] is described as follows: Induction of DNA damage in human DM1-patient derived myotubes at 1 uM assessed as induction of DNA double strand breaks by measuring gamma-H2AX foci formation by immunofluorescence assay relative to control. Type of data set: functional.
Data set [2] can be described thus: Toxicity in human DM1-patient derived myotubes at 5 uM.

Turning to `Cc1c(N)nc([C@H](CC(N)=O)NC[C@H](N)C(N)=O)nc1C(=O)N[C@H](C(=O)N[C@H](C)[C@@H](O)[C@H](C)C(=O)N[C@H](C(=O)NCCc1nc(-c2nc(C(=O)NCCCNCCCCN)cs2)cs1)[C@@H](C)O)[C@@H](O[C@@H]1O[C@@H](CO)[C@@H](O)[C@H](O)[C@@H]1O[C@@H]1O[C@H](CO)[C@@H](O)[C@H](OC(N)=O)[C@@H]1O)c1cnc[nH]1`, the “fold change (FC)” value in data set [1] is 6.

Turning to `CN1CCN(c2ccc3[nH]c(-c4ccc5[nH]c(-c6cccc(OCCCC(=O)N(C)CCCCN(CC(N)=O)C(=O)[C@H](Cc7ccc(O)cc7)NC(=O)[C@H](Cc7ccc(O)cc7)NC(=O)[C@H](Cc7ccc(O)cc7)NC(=O)[C@H](Cc7ccc(O)cc7)NC(=O)CCCOc7cccc(-c8nc9ccc(-c%10nc%11ccc(N%12CCN(C)CC%12)cc%11[nH]%10)cc9[nH]8)c7)c6)nc5c4)nc3c2)CC1`, the Activity result in data set [2] is “Toxic”.
